From patent publication US20230218661A1, “ISOTONIC OR HYPERTONIC SALT-BASED COMPOSITIONS, TREATMENTS, DEVICES, AND ARTICLES FOR DELIVERY OF SAME TO LARYNX” (SENSORY CLOUD, INC., priority 2022, published 2023)

System: post viral cough
Experiment: Informal single-subject study of post viral cough exacerbation
Settings: self-administration, subjective

For `COc1ccc2c3c1O[C@H]1[C@@H](O)C=C[C@H]4[C@@H](C2)N(C)CC[C@@]341` [codeine], the subject-reported relief was “dramatic relief”.
